Entries after “also recorded” stand apart in the source; their conditions may differ.
Experiments:
[1] = target: Cdk2-cyclin A (Homo sapiens, UniProt P24941); assay: In vitro kinase assay, Cdk2-cyclin A (in-house); type: biochemical; details: three independent experiments; read-out: IC50 (mean±S.D.), Cdk2-cyclin A
Description: (§1) The in vitro kinase assays for testing against Cdk4-cyclin D1, Cdk2-cyclin A, Cdk1-cyclin B1 and Cdk9-cyclin T1 were performed in-house. The methodology and results have been reported previously.[20], [30], [31], [32], [45] The kinase profiling for 58 representative kinases was carrried out commercially at Millipore Bioscience Division, Livingston, UK.

[2] = target: Plk3 (Homo sapiens, UniProt Q9H4B4); assay: Kinase profiling (Millipore), Plk3; type: biochemical
Plk3, sequence (Q9H4B4 whole entry): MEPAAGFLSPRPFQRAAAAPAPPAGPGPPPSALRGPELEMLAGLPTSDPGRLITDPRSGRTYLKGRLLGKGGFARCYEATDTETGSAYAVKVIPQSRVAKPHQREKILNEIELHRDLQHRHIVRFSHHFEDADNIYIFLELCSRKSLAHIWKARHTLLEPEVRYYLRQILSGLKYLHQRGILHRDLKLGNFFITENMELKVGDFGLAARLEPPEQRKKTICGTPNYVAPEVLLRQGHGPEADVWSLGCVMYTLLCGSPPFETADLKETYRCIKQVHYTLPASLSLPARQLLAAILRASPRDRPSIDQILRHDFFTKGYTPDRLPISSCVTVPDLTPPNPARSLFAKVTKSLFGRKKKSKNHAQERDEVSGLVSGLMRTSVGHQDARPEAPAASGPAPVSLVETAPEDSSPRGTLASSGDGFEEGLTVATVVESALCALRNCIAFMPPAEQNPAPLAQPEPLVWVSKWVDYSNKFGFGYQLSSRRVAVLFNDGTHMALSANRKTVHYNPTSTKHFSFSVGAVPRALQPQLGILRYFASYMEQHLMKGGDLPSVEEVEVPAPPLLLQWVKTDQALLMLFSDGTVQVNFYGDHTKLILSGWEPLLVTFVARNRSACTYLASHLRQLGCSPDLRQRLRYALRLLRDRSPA
Description: as §1

[3] = system: NCI-H1299 (NSCLC; p53 null, pRb+); assay: Cell proliferation (MTT) assay, NCI-H1299; type: cell-based; details: Homo sapiens, 48 h, read-out: IC50 cell growth inhibition, NCI-H1299
Description: (§2) All 10 human cancer cell lines were maintained at 37 °C in 5% CO2 in RPMI-1640 medium, supplemented with 10% foetal calf serum and 100 μg/ml normocin. The 10 cancer cell lines used for screening were all obtained from ATCC (Manassas, VA, USA); they were the NSCLC (a form of cancer that is resistant to chemotherapy) lines: NCI-H460 (pRb^+, p53^+), A549 (pRb^+, p53^+), Calu-1 (pRb^+, p53-null), NCI-H1299 (pRb^+, p53-null), NCI-H358 (pRb-null, p53-null); the colon cancer line LS174T (pRb^+, p53^+); the prostate cancer line PC-3 (pRb^+, p53-null); the pancreatic cancer line MiaPaca (pRb^+, p53-mutant). The genotypes within brackets indicate the status of the tumour suppressor proteins pRb and p53. The mouse embryonic normal hepatic cell line (BNL CL2) and its SV40 large T-antigen-transformed counterpart cell line (BNL SV A.8) were also purchased from ATCC. The large T-antigen inactivates the tumour suppressor proteins p53 and pRb. The detailed procedure of cell proliferation (MTT) assay and IC50 determination was described previously.[32]

[4] = Pharmacokinetics in BALB/c mice; type: in vivo
Description: Oral and intravenous pharmacokinetic studies of BPT were carried out in BALB/c male mice of age 4–6 weeks, by administering BPT orally and intravenous formulation at dose of 10 mg/kg for oral and 1 mg/kg for intravenous. Plasma samples were collected at appropriate time points between the range 0 and 24 h, and analysed by LC-MS-MS. Mean plasma concentration calculated and data were further analysed to determine PK parameters such as t1/2, Cmax, ACU, Vd and CL, using WinNonlin 5.3 software package (Pharsight Company, Princeton, NJ, USA).

[5] = target: MAPK1 (Homo sapiens, UniProt P27361); assay: Kinase profiling (Millipore), MAPK1; type: biochemical
MAPK1, sequence (P27361 2-379 limits assumed): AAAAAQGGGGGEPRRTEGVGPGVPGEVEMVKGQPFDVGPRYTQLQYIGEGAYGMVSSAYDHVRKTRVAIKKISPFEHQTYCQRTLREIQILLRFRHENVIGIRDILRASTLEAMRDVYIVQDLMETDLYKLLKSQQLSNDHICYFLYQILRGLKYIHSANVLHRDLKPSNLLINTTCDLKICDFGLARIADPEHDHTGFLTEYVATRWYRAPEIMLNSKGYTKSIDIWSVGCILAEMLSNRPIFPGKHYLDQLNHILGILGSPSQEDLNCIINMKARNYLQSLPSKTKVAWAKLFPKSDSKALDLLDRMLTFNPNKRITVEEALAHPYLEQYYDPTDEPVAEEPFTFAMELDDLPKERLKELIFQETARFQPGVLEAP
Description: as §1

[6] = target: PKA (Homo sapiens, UniProt P17612); assay: Kinase profiling (Millipore), PKA; type: biochemical
Description: as §1

[7] = system: pBluescript plasmid DNA; assay: Topoisomerase I catalysed DNA relaxation or unwinding assay; type: biochemical
Description: For assay, 5 nM supercoiled pBluescript d-s plasmid DNA and 10 U of topoisomerase-I active enzyme were used in each reaction well. To ensure that the assay determines the DNA-intercalating property of compounds and not topoisomerase I inhibition, in a parallel experiment relaxed plasmid DNA was first prepared by treating with topo I enzyme for 30 min and then used as an initial substrate for the assay. DNA relaxation assays were performed in the presence or absence of compounds in 40 μl of DNA unwinding assay buffer. After 30 min incubation at 37 °C, reaction mixtures were treated with 3 μl of 250 mM EDTA and extracted with phenol/chloroform. The DNA was dissolved in tris-EDTA buffer, pH 8.0. The samples (20 μl) were treated with 2 μl of 2.5% SDS, mixed with 2.5 μl agarose gel loading buffer (10x) and subjected to electrophoresis on a 0.8% agarose gel without EtBr (separating the DNA in the presence of EtBr would convert the relaxed DNA into the supercoiled form). After the electrophoretic separation, DNA bands were stained with 1 μg/ml EtBr and visualized using a UV illuminator. The compounds were compared with fascaplysin, which is a known DNA-intercalating molecule. Camptothecin, which is a known topoisomerase- I inhibitor, was used to test the activity and inhibition of enzyme.

[8] = system: NCI-H1299 cells; assay: Flow cytometric cell cycle analysis, NCI-H1299; type: cell-based, human; details: NCI-H1299, IC50 concentration, 24 h
Description: The untreated (control) and treated (with test compounds) cells were harvested by trypsinization, washed once with PBS and then fixed in 70% chilled (−20 °C) ethanol for minimum 1 h. After the fixation step, cells were centrifuged for 5 min at 3000 × g at room temperature, and the pellet was suspended in PBS containing 50 μg/ml propidium iodide (Sigma-Aldrich, Dorset, UK; cat. no. P-4170) and 0.5 mg/ml DNase-free ribonuclease (Sigma-Aldrich; cat. no. R-5503). The cells were stained for 1 h in the dark at 4 °C. Cell cycle analysis was performed on the Beckman Coulter (Epics Altra) fluorescence-activated cell sorter (Beckman Coulter UK Ltd, Buckinghamshire, UK). To gate all the events that represent single cells, and not cell doublets or cell clumps, the following analyses were performed on the samples. Cytograms of propidium iodide fluorescence peak signal versus integrated fluorescence or the linear signal were plotted. All data points on the straight line were isolated in a single gate and the gated data was further used for plotting a histogram that represents a complete cell cycle. The total number of events was not allowed to exceed 200 events per s. Data acquisition was stopped after a minimum of 10 000 events had been collected.

[9] = system: Calu-1 (NSCLC; p53 null, pRb+); assay: Cell proliferation (MTT) assay, Calu-1; type: cell-based, human
Description: as §2

[10] = target: Cdk4-cyclin D1 (Homo sapiens, UniProt P11802); assay: In vitro kinase assay, Cdk4-cyclin D1 (in-house); type: biochemical
Cdk4-cyclin D1, sequence (P11802 whole entry): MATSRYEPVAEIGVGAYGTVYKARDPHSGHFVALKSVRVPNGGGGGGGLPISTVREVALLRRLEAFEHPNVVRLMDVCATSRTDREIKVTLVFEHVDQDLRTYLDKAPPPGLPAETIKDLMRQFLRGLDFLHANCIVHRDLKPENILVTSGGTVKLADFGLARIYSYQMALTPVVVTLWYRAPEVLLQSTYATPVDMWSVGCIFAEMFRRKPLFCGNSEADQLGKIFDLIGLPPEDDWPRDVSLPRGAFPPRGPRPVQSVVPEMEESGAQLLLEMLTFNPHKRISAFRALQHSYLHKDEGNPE
Cdk4-cyclin D1, sequence (P24385 whole entry partner): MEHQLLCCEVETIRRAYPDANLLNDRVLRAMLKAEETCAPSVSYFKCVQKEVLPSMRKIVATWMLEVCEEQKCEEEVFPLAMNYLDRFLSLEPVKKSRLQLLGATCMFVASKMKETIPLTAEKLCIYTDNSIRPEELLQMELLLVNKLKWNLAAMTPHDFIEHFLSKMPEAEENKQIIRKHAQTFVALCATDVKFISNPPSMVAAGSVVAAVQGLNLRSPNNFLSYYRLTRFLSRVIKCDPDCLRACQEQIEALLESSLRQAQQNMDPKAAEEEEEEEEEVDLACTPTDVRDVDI
Description: as §1

[11] = system: several human cancer cells; assay: Growth inhibition of several human cancer cells; type: cell-based
Description: as §2

[12] = target: Cdk1-cyclin B1 (Homo sapiens, UniProt P06493); assay: In vitro kinase assay, Cdk1-cyclin B1 (in-house); type: biochemical; details: three independent experiments; read-out: IC50 (mean±S.D.), Cdk1-cyclin B1
Cdk1-cyclin B1, sequence (P06493 whole entry): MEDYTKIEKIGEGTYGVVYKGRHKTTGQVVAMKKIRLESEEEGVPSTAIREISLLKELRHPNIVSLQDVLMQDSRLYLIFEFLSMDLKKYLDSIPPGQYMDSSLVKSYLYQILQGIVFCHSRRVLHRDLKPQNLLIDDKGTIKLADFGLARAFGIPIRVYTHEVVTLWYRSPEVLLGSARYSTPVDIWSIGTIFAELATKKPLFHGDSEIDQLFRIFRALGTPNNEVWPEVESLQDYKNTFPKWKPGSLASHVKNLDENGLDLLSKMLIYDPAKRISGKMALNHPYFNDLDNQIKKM
Cdk1-cyclin B1, sequence (P14635 whole entry partner): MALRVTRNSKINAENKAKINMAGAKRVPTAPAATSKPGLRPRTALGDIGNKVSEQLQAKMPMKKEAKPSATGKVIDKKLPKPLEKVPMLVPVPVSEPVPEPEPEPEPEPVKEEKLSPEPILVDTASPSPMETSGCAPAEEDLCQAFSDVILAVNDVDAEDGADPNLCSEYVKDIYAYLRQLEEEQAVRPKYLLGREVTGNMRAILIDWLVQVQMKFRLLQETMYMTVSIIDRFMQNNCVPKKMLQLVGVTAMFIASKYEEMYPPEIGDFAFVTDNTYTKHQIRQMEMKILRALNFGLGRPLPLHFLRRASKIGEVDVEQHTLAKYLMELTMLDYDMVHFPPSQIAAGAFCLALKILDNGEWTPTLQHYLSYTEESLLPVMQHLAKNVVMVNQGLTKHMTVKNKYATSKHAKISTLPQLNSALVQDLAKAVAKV
Description: as §1

[13] = system: A549 (NSCLC; p53+, pRb+); assay: Cell proliferation (MTT) assay, A549; type: cell-based; details: Homo sapiens, 48 h, read-out: IC50 cell growth inhibition, A549
Description: as §2

[14] = male, mouse, plasma, 1.0 mg/kg intravenous

For `O=C(c1ccccc1-c1ccccc1)N1CCc2c([nH]c3ccccc23)C1` [BPT, 2-(biphenyl-2-carbonyl)-2,3,4,9-tetrahydro-1H-pyrido[3,4-b]indole], the IC50 [1] was 831 ± 15.5 µM, the IC50 [2] was > 10 µM and the IC50 [3] was 0.9 µM. The oral bioavailability [4] was “poor”, the “plasma exposure after intravenous administration” value [4] was “good plasma exposure” and the CL ([4]; 1.0 mg/kg intravenous) was 95.8 ml/min per kg. For the same molecule, the AUC(0-inf) [4, 14] was 174 ng·h/mL, the AUC(0-t) [4, 14] was 170 ng·h/mL and the C0 [4, 14] was 888 ng/mL. For the same molecule, the Cmax [4, 14] was 413 ng/mL, the Vd [4, 14] was 1.56 L/kg and the half-life [4, 14] was 11.4 min. For the same molecule, the AUC(0-t) ([4]; male, mouse, plasma, oral, 10 mg/kg per os) was 17.7 ng·h/mL, the IC50 [5] was > 10 µM and the IC50 [6] was > 10 µM. The “state of relaxed (negatively supercoiled) plasmid DNA after treatment” value ([7]; relaxed pBluescript DNA as substrate, BPT up to 100 μM, fascaplysin 1 μM) was “remained relaxed”, the “hindrance of topoisomerase-I catalysed DNA relaxation” value ([7]; supercoiled pBluescript DNA, fascaplysin 10 and 1 µM, BPT 10 and 100 µM) was “does not hinder DNA relaxation process; also recorded: does not intercalate” and the “cells in G2/M” value [8] was 50%. The IC50 ([9]; Homo sapiens, Calu-1, 48 h, MTT, read-out: IC50 cell growth inhibition, Calu-1) was 2.8 µM, the “resistance of Calu-1 cells to growth inhibition” value ([9]; relative to other cell lines) was “two- to three-fold” and the “selectivity for Cdk4-cyclin D1 with respect to Cdk2-cyclin A” value [10] was 83 fold. For the same molecule, the IC50 ([10]; three independent experiments, read-out: IC50 (mean±S.D.), Cdk4-cyclin D1) was 10 ± 1.2 µM, the IC50 [11] was < 1 µM and the IC50 [12] was > 500 µM. The IC50 [13] was 0.92 µM.
